Results from patent publication US20150196668A1, “NANOMEDICINES FOR EARLY NERVE REPAIR” (Purdue Research Foundation, priority 2011, published 2015).

Experiments:
[1] = tested on: primary neuron and glia cells; assay: LDH release from glutamate challenged primary neuron and glia cells; format: cell-based
Description: FIGS. 36A-B show rescue of glutamate challenged primary neuron and glia cells as measured by LDH release. Studies with glutamate challenged primary neuron and glial cells show efficacy of GC-MP/MP and GCMP at high concentrations and GC-MP/MP at low concentrations (FIG. 36A). MPHS is beneficial at lower concentrations. LDH release from glutamate challenged (100 umol) primary neuron and glial cells treated with GC, GC-MP, GC-MP/MP (all 1 mg/ml) and MPHS (250 ug/ml) (FIG. 36B).

PC12 cell = assay: H2O2-induced PC12 cell injury model, apoptosis (Example 1); format: cell-based

SMILES | rescue of glutamate challenged cells, LDH release ([1]; 16 hours, GC, GC-MP, GC-MP/MP 1 mg/ml, MPHS 250 ug/ml, glutamate 100 umol) | rescue of glutamate challenged cells at low concentrations ([1]; FIG. 36A) | reducing cell apoptosis (PC12 cell)
C[C@H]1C[C@@H]2[C@H]([C@@H](O)C[C@@]3(C)[C@H]2CC[C@]3(O)C(=O)COC(=O)CCC(=O)O)[C@@]2(C)C=CC(=O)C=C12 [MPHS, methylprednisolone hemisuccinate] | not significant | beneficial | –
COc1cc(/C=C/C(=O)CC(=O)/C=C/c2ccc(O)c(OC)c2)ccc1O [curcumin] | – | – | effective in reducing cell apoptosis
